Source: ChEMBL document CHEMBL4316584, “All that glitters is not gold: Panning cytotoxic natural products and derivatives with a fused tricyclic backbone by the estimation of their leadlikeness for cancer treatment” (Eur J Med Chem, 2019)

System: A549
Assay: Cytotoxicity against human A549 cells after 48 hrs by MTT assay
Assay type: functional, cell-based
Conditions: Homo sapiens, A549, 48 h

Structure (SMILES) | IC50 [µM]
CC(C)=CCc1c(O)c(CC=C(C)C)c2oc3ccc(O)cc3c(=O)c2c1O | 8.85
CC(C)c1cc2c(cc1O)[C@@]1(C)CCC[C@](C)(CO)[C@@H]1CC2 | 14
O=c1c2ccccc2oc2cc(O)ccc12 | 14.6
COC(=O)c1c(O)ccc2oc3cc(C)cc(O)c3c(=O)c12 | 5.2
COc1ccc(C(=O)/C=C/c2cc3c([nH]c4ccccc43)c(-c3ccc(F)cc3)n2)cc1 | 8.43
O=C(/C=C/c1cc2c([nH]c3ccccc32)c(-c2ccc(C(F)(F)F)cc2)n1)c1ccco1 | 2.57
COc1ccc(C(=O)/C=C/c2cc3c([nH]c4ccccc43)c(-c3ccc(F)c(OC)c3)n2)cc1 | 5.1
CC(=O)N1N=C(c2ccco2)CC1c1cc2c([nH]c3ccccc32)c(-c2ccc(C(F)(F)F)cc2)n1 (stereo unspecified) | 2.39
COc1ccc(C(=O)/C=C/c2cc3c([nH]c4ccccc43)c(-c3cc(OC)c(OC)c(OC)c3)n2)cc1 | 9.61
O=C(/C=C/c1cc2c([nH]c3ccccc32)c(-c2ccc(F)cc2)n1)c1ccc(F)cc1 | 5.65
CC1=CC2C(=O)c3nccc(N(C)C)c3C(=O)C2N=C1 (stereo unspecified) [listing 1 of 2 here] | 3.29
Cc1cnc2c(c1)C(=O)C1N=CC=C(C=O)C1C2=O (stereo unspecified) | 0.33
Cc1cnc2c(c1)C(=O)C1C=CC=NC1C2=O (stereo unspecified) | 2.23
CC1=CC2C(=O)c3nccc(I)c3C(=O)C2N=C1 (stereo unspecified) | 0.14
CC(=O)N1N=C(c2ccc(N)cc2)CC1c1cc2c([nH]c3ccccc32)c(-c2ccc(F)c(F)c2)n1 (stereo unspecified) | 9.77
CC(=O)N1N=C(c2ccc(N)cc2)CC1c1cc2c([nH]c3ccccc32)c(-c2ccc(C(F)(F)F)cc2)n1 (stereo unspecified) | 13.2
O=C1c2c(O)ccnc2C(=O)C2C(c3ccccc3)=CC=NC12 (stereo unspecified) | 14.5
O=C(/C=C/c1cc2c([nH]c3ccccc32)c(-c2ccc(F)c(F)c2)n1)c1cccs1 | 6.76

Structure (SMILES) | IC50 [µM]
CCN(CC)CC1CCc2c(n(C)c3ccccc23)C1=O (stereo unspecified) | 0.07
C=C[C@@]1(C)C=C2[C@@H](O[C@@H]3O[C@H](C)[C@H](O)[C@H](O)[C@H]3O)C[C@@H]3C(C)(C)[C@H](O[C@@H]4O[C@@H](C)[C@H](O)[C@@H](O)[C@H]4OC(C)=O)CC[C@@]3(C)[C@@H]2CC1 | 10.4
CC(C)(O)c1ccc2c(c1)C(=O)C[C@H]1C(C)(C)CCC[C@]21C | 14
Cc1cnc2c(c1)C(=O)C1N=CC=C(/C=C/C#N)C1C2=O (stereo unspecified) | 7.88
Nc1ccc(C(=O)/C=C/c2cc3c([nH]c4ccccc43)c(-c3ccc(C(F)(F)F)cc3)n2)cc1 | 2.95
CC(=O)N1N=C(c2ccco2)CC1c1cc2c([nH]c3ccccc32)c(-c2cccc(Cl)c2)n1 (stereo unspecified) | 15.4
COC(=O)c1ccc2c(=O)c3c(OC)cc(CCO)cc3oc2c1O | 4.8
Cc1cnc2c(c1)C(=O)C1N=CC=CC1C2=O (stereo unspecified) | 3.72
COc1cc(-c2nc(/C=C/C(=O)c3ccco3)cc3c2[nH]c2ccccc23)cc(OC)c1OC | 3.8
CC1CCN(CC2CCc3c(n(C)c4ccccc34)C2=O)CC1 (stereo unspecified) | 0.71
COc1cc(-c2nc(C3CC(c4ccco4)=NN3C(C)=O)cc3c2[nH]c2ccccc23)cc(OC)c1OC (stereo unspecified) | 3.2
O=C(/C=C/c1cc2c([nH]c3ccccc32)c(-c2ccc(F)c(F)c2)n1)c1ccco1 | 9.54
CC1=CC2C(=O)c3nccc(Cl)c3C(=O)C2N=C1 (stereo unspecified) | 13.7
CN(Cc1ccccc1)CC1CCc2c(n(C)c3ccccc23)C1=O (stereo unspecified) | 14.1
COc1cc(C2=NN(C(C)=O)C(c3cc4c([nH]c5ccccc54)c(-c4ccc(F)c(F)c4)n3)C2)cc(OC)c1OC (stereo unspecified) | 11
COc1ccnc2c1C(=O)C1N=CC=C(c3ccccc3)C1C2=O (stereo unspecified) | 10.6
O=C(/C=C/c1cc2c([nH]c3ccccc32)c(-c2cccc(Cl)c2)n1)c1ccco1 | 18.6
O=C1c2c(O)ccc(O)c2C(=O)c2c(NCCNCCO)ccc(NCCNCCO)c21 [MITOXANTRONE] | 7.25

Same assay, conditions: a549

Structure (SMILES) | IC50 [µM]
CC1=CC2C(=O)c3nccc(N(C)C)c3C(=O)C2N=C1 (stereo unspecified) [listing 2 of 2 here] | 3.12

System: MCF7
Assay: Cytotoxicity against human MCF7 cells after 48 hrs by MTT assay
Assay type: functional, cell-based
Conditions: MCF7, 48 h

Structure (SMILES) | IC50 [µM]
O=C1C(=O)c2cccnc2-c2ncccc21 | 0.58
COc1cc(O)c(C(CO)C(O)CO)c2oc3cccc(O)c3c(=O)c12 (stereo unspecified) | 9.7
C=C[C@@]1(C)C=C2[C@@H](O[C@@H]3O[C@H](C)[C@H](O)[C@H](O)[C@H]3O)C[C@@H]3C(C)(C)[C@H](O[C@@H]4O[C@@H](C)[C@H](O)[C@@H](O)[C@H]4O[C@H]4O[C@H](CO)[C@@H](O)[C@H](O)[C@H]4O)CC[C@@]3(C)[C@@H]2CC1 | 5.6
C=C[C@@]1(C)C=C2[C@@H](O[C@@H]3O[C@H](C)[C@H](O)[C@H](O)[C@H]3O)C[C@@H]3C(C)(C)[C@H](O[C@@H]4O[C@@H](C)[C@H](O)[C@@H](O)[C@H]4O)CC[C@@]3(C)[C@@H]2CC1 | 10.2
COc1cc(O)c2c(c1O)C(=O)C1=C(C2=O)C(O)C(O)C(C)(O)C1 (stereo unspecified) | 7.5
COc1cc(C(=O)/C=C/c2cc3c([nH]c4ccccc43)c(-c3ccc(F)c(F)c3)n2)cc(OC)c1OC | 8.7
C[C@]1(O)Cc2c(O)c3c(c(O)c2[C@H](O)[C@H]1O)C(=O)C=C(N1CCC(c2ccccc2)CC1)C3=O | 4.81
CCCCCCNC1=CC(=O)c2c(O)c3c(c(O)c2C1=O)C[C@](C)(O)[C@H](O)[C@H]3O | 4.87
C#CCOc1cc(O)c2c(c1)C(=O)c1cc(C)cc(O)c1C2=O | 20
CCCCNC1=CC(=O)c2c(O)c3c(c(O)c2C1=O)C[C@](C)(O)[C@H](O)[C@H]3O | 1.08
COC1=C(C)C(O)=CC2C(=O)c3c(ccc(OC)c3OC)C(=O)C12 (stereo unspecified) | 10.2
CCCNC1=CC(=O)c2c(O)c3c(c(O)c2C1=O)C[C@](C)(O)[C@H](O)[C@H]3O | 14
C=C[C@@]1(C)C=C2[C@@H](O[C@@H]3O[C@H](C)[C@H](O)[C@H](O)[C@H]3O)C[C@@H]3C(C)(C)[C@H](O[C@@H]4O[C@@H](C)[C@H](O)[C@@H](O)[C@H]4O[C@H]4O[C@H](C)[C@H](O)[C@H](O)[C@H]4O)CC[C@@]3(C)[C@@H]2CC1 | 4.7
CNC1=CC(=O)c2c(O)c3c(c(O)c2C1=O)C[C@](C)(O)[C@H](O)[C@H]3O | 3.58
CCCCSC1=C(SCCCC)C(=O)c2c(O)c3c(c(O)c2C1=O)C[C@](C)(O)[C@H](O)[C@H]3O | 2.45
COC(=O)c1ccc2c(=O)c3c(O)cc(CCO)cc3oc2c1O | 2.7
C[C@]1(O)Cc2c(O)c3c(c(O)c2[C@H](O)[C@H]1O)C(=O)C(SCCO)=C(SCCO)C3=O | 14.4
Nc1ccc(C(=O)/C=C/c2cc3c([nH]c4ccccc43)c(-c3ccc(F)c(F)c3)n2)cc1 | 10.5
COc1ccc2oc3ccccc3c(=O)c2c1O | 16.5
COC(=O)c1cccc2oc3cc(CCO)cc(O)c3c(=O)c12 | 4.6
C[C@]1(O)Cc2c(O)c3c(c(O)c2[C@H](O)[C@H]1O)C(=O)C=C(N1CCCCC1)C3=O | 3.14
Cc1cc(O)c2c(c1)C(=O)c1cc(OCCN(C)C)cc(O)c1C2=O | 4.5
COc1ccc(CNC2=CC(=O)c3c(O)c4c(c(O)c3C2=O)C[C@](C)(O)[C@H](O)[C@H]4O)cc1 | 9.17
CC(CO)c1cc2c(c(O)c1O)C[C@@]1(O)CCCC(C)(C)[C@@H]1CC2 (stereo partly specified) | 16
CC(CO)c1cc(O)c2c(c1)[C@@H](O)C[C@H]1C(C)(C)CCC[C@]1(O)C2 (stereo partly specified) | 15.8
CC(CO)c1cc(O)c2c(c1)CC[C@H]1C(C)(C)CCC[C@]1(O)C2 (stereo partly specified) | 10.8

System: HCT-116
Assay: Cytotoxicity against human HCT116 cells after 48 hrs by MTT assay
Assay type: functional, cell-based
Conditions: HCT-116, 48 h

Structure (SMILES) | IC50 [µM]
Cc1nccc2c3ccccc3n(CCCCn3c4ccccc4c4ccnc(C)c43)c12 | 3.58
CCCCn1c2c(c3ccccc31)CCC(CN1CCOCC1)C2=O (stereo unspecified) | 5.82
O=c1c2ccc(O)c(O)c2oc2cc(O)cc(O)c12 | 18.6
CC(=O)O[C@@H]1[C@H](C)CC(O)=C2C(=O)c3c(ccc(-c4ccc(O)c5c4O[C@@]4(CO)C(=C(O)C[C@@H](C)[C@H]4OC(C)=O)C5=O)c3O)O[C@@]21CO | 7.12
CC(=O)OC[C@]12Oc3ccc(-c4ccc(O)c5c4O[C@@]4(CO)C(=C(O)C[C@@H](C)[C@H]4OC(C)=O)C5=O)c(O)c3C(=O)C1=C(O)C[C@@H](C)[C@H]2OC(C)=O | 6.92
CC(C)=CCc1c(O)cc(O)c2c(=O)c3c(O)cccc3oc12 | 10.8
O=c1c2ccc(O)cc2oc2cc(O)cc(O)c12 | 19.8
O=c1c2ccc(O)c(O)c2oc2c(O)c(O)ccc12 | 18.5
COc1cc(O)c2c(c1)C(=O)C1=C(C[C@@H](O)[C@@](C)(O)[C@@H]1O)C2=O [ALTERSOLANOL C] | 3.03
COC1=CC(=O)c2c(O)c3c(c(O)c2C1=O)C[C@](C)(O)[C@H](O)[C@H]3O [BOSTRYCIN] | 4.78
CC(=O)O[C@@H]1[C@H](C)CC(O)=C2C(=O)c3c(ccc(-c4ccc5c(c4O)C(=O)C4=C(O)C[C@@H](C)[C@@H](OC(C)=O)[C@@]4(CO)O5)c3O)O[C@@]21CO [DICERANDROL A] | 2.64
CC(=O)OC[C@]12Oc3ccc(-c4ccc5c(c4O)C(=O)C4=C(O)C[C@@H](C)[C@@H](OC(C)=O)[C@@]4(CO)O5)c(O)c3C(=O)C1=C(O)C[C@@H](C)[C@H]2OC(C)=O [DICERANDROL B] | 3.94
COC1=CC(=O)c2c(cc3c(c2O)C[C@@H](O)[C@@](C)(O)C3)C1=O [NIGROSPORIN B] | 4.7
